# According to US20160038588A1, “Myostatin Antagonism in Human Subjects” (AMGEN INC., priority 2013, published 2016):
# What was measured:
# Assay type in all cases: in vivo, human
# [1] = tested on: anti-AMG 745 (whole molecule) binding antibodies; experiment: Clinical study: anti-AMG 745 binding antibody immunoassays; conditions: subjects who received AMG 745 (1/31)
# Experimental: For the 54 subjects who completed the study serum samples were analysed by surface-plasmon-resonance-based biosensor immunoassays for anti-AMG 745 (whole molecule) binding antibodies. Samples from 2 subjects gave positive results in 1 or more of the immunoassays: […]
# [2] = tested on: men with prostate cancer receiving ADT; experiment: Clinical study: pharmacodynamics (DXA lean and fat mass, CT lower extremity muscle size)
# Experimental: Eligible subjects were men with a documented history of prostate cancer; no documented distant metastasis at time of enrollment; received ADT (androgen deprivation therapy) for at least 6 months as a primary, adjuvant, or salvage treatment for prostate cancer prior to enrollment; if ADT was being administered intermittently, serum total testosterone level <50 ng/dL at screening; a stable prostate-specific antigen (PSA) as determined by the investigator; no history of primary muscle disease, myopathy, or neuropathy; weight ≦137 kg (300 lbs) and height ≦78 inches; Eastern Cooperative Oncology Group (ECOG) performance status of 0 at screening; no clinically significant elevated creatine phosphokinase (CPK); glomerular filtration rate (GFR) >40 mL/min; aspartate aminotransferase (AST) or alanine aminotransferase (ALT)<2.5× upper limit of normal.
# This planned enrollment assumed a between treatment group difference of 1.5% for the secondary endpoint, percent change in lean body mass from baseline to week 5 (standard deviation of 2.1; Smith et al. 2001), and provided 80% power for a 1-sided test at the 10% significance level. An analysis of variance (ANOVA) was used to compare percent change from baseline between treatment groups (3 mg/kg AMG 745 versus placebo).
# Analyses of the pharmacodynamic effects were limited to the 3-mg/kg dose cohort and the study was designed to have 80% power to detect a statistically significant between-treatment-group difference in percent change in lean body mass.
# [3] = tested on: men with prostate cancer receiving ADT; experiment: Clinical study: lower extremity strength (1-RM knee extension) and SPPB; parameters: End of Study SPPB-Total Score, Mean / End of Study SPPB-Total Score, Median / Change from Baseline to End of Study SPPB-Total Score, Mean / Change from Baseline to End of Study SPPB-Total Score, Median / Follow-up SPPB-Total Score, Mean / Follow-up SPPB-Total Score, Median: scale not given here
# Experimental: Lower extremity strength was assessed on the basis of maximum weight lifted for one repetition (1-RM) using a knee extension machine. This assessment was performed within 2 weeks prior to and/or up to Day 2, on Day 29, and at a 1 month follow-up visit.
# Short Physical Performance Battery (SPPB) was conducted within 2 weeks prior to and/or up to Day 1, on Day 29, and at the 1 month follow-up visit. The SPPB included an assessment of standing balance, timed walk test, and five repetitions of chair stand.
# [4] = tested on: men with prostate cancer receiving ADT; experiment: Clinical study: safety (adverse events, laboratory variables, ECG, vital signs); conditions: for DEATHS ON STUDY: during study or within 30 days of last dose
# Experimental: Adverse events and concomitant medications were recorded at all study visits.
# For safety analyses, all subjects who received AMG 745 or placebo were included and placebo-treated subjects from all cohorts were combined to form a composite placebo group.
# [5] = 3 mg/kg, baseline to EOS (day 29)
# [6] = 3 mg/kg, baseline to follow-up visit
# [7] = CT scan, least squares mean (SE)
# [8] = DXA scan, ad hoc analysis, least squares mean (SE)
# [9] = lean body mass minus the head, DXA scan, least squares mean (SE)
# [10] = 0.3 mg/kg SC 4-Week Dosing (N = 6)
# [11] = 1.0 mg/kg SC 4-Week Dosing (N = 6)
# [12] = 3.0 mg/kg SC 4-Week Dosing (N = 19)
substance,measurement,setting,value
AMG 745: anti-myostatin peptibody: human IgG1 Fc fused at C-terminus via GGGGGAQ linker to peptide SEQ ID NO:311; chain SEQ ID NO:635,incidence of anti-AMG 745 (whole molecule) binding antibodies,[1],3%
same,"percent change in lean body mass, least squares mean (SE)","[2]; 3 mg/kg weekly ×4, baseline to EOS (day 29)",1.5% (0.5%)
same,lower extremity muscle size percent change,[2]; [5],1.2% (0.7%)
same,percent change in fat body mass,[2]; [5],−0.7% (0.2%)
same,"fat body mass, between-group difference vs placebo","[2]; 3 mg/kg, baseline to EOS (day 29), p=0.005",−1.0% (0.3%)
same,"lower extremity muscle size, between-group difference vs placebo","[2]; 3 mg/kg, baseline to EOS (day 29), p=0.065",1.8% (1.0%)
same,lower extremity muscle size percent change,[2]; [6],2.7% (0.7%)
same,percent change in fat body mass,[2]; [6],−0.8% (0.3%)
same,"lower extremity muscle size, between-group difference vs placebo","[2]; 3 mg/kg, baseline to follow-up visit, p=0.007",2.8% (1.0%)
same,"percent change in lean body mass, least squares mean (SE)","[2]; 3 mg/kg, follow-up visit 1 month after day 29",1.9% (0.5%)
same,"Lower-extremity Muscle Size, Between-group difference in percent change, Baseline to Follow-up Visit [Day 58]","[2]; AMG 745 vs placebo, CT, least squares mean (SE), p value 0.007",2.8% (1.0%)
same,"Lower-extremity Muscle Size, Between-group difference in percent change, Baseline to EOS [Day 29]","[2]; AMG 745 vs placebo, CT, least squares mean (SE), p value 0.065",1.8% (1.0%)
same,"Whole Body Fat, Between-group difference in percent change, Baseline to EOS [Day 29]","[2]; AMG 745 vs placebo, DXA, ad hoc, least squares mean (SE), p value 0.005",−1.0% (0.3%)
same,"Whole Body Fat, Between-group difference in percent change, Baseline to Follow-up Visit [Day 58]","[2]; AMG 745 vs placebo, DXA, ad hoc, least squares mean (SE), p value 0.068",−0.7% (0.4%)
same,"Lean Body Mass, Between-group difference in percent change, Baseline to EOS [Day 29]","[2]; AMG 745 vs placebo, DXA, least squares mean (SE), p value 0.008",2.2% (0.8%)
same,"Lean Body Mass, Between-group difference in percent change, Baseline to Follow-up Visit [Day 58]","[2]; AMG 745 vs placebo, DXA, least squares mean (SE), p value 0.023",1.7% (0.7%)
same,"Lower-extremity Muscle Size, Percent Change From Baseline to EOS [Day 29]",[2]; [7],1.2% (0.7%)
same,"Lower-extremity Muscle Size, Percent Change From Baseline to Follow-up Visit [Day 58]",[2]; [7],2.7% (0.7%)
same,"Whole Body Fat, Percent Change From Baseline to EOS [Day 29]",[2]; [8],−0.7% (0.2%)
same,"Whole Body Fat, Percent Change From Baseline to Follow-up Visit [Day 58]",[2]; [8],−0.8% (0.3%)
same,"Lean Body Mass, Percent Change From Baseline to EOS [Day 29]",[2]; [9],1.5% (0.5%)
same,"Lean Body Mass, Percent Change From Baseline to Follow-up Visit [Day 58]",[2]; [9],1.9% (0.5%)
same,"Change from Baseline to End of Study SPPB-Total Score, Mean",[3]; [10],0.67
same,"Change from Baseline to End of Study SPPB-Total Score, Median",[3]; [10],1.00
same,"End of Study SPPB-Total Score, Mean",[3]; [10],11.00
same,"End of Study SPPB-Total Score, Median",[3]; [10],11.00
same,"Follow-up SPPB-Total Score, Mean",[3]; [10],11.00
same,"Follow-up SPPB-Total Score, Median",[3]; [10],11.00
same,"Change from Baseline to End of Study SPPB-Total Score, Mean",[3]; [11],1.50
same,"Change from Baseline to End of Study SPPB-Total Score, Median",[3]; [11],1.50
same,"End of Study SPPB-Total Score, Mean",[3]; [11],10.33
same,"End of Study SPPB-Total Score, Median",[3]; [11],10.00
same,"Follow-up SPPB-Total Score, Mean",[3]; [11],9.50
same,"Follow-up SPPB-Total Score, Median",[3]; [11],9.00
same,"Change from Baseline to End of Study SPPB-Total Score, Mean",[3]; [12],0.37
same,"Change from Baseline to End of Study SPPB-Total Score, Median",[3]; [12],0.00
same,"End of Study SPPB-Total Score, Mean",[3]; [12],10.53
same,"End of Study SPPB-Total Score, Median",[3]; [12],11.00
same,"Follow-up SPPB-Total Score, Mean",[3]; [12],10.68
same,"Follow-up SPPB-Total Score, Median",[3]; [12],11.00
same,"Change from Baseline to End of Study SPPB-Total Score, Mean",[3]; All AMG 745 Subjects (N = 31),0.65
same,"Change from Baseline to End of Study SPPB-Total Score, Median",[3]; All AMG 745 Subjects (N = 31),1.00
same,"End of Study SPPB-Total Score, Mean",[3]; All AMG 745 Subjects (N = 31),10.58
same,"End of Study SPPB-Total Score, Median",[3]; All AMG 745 Subjects (N = 31),11.00
same,"Follow-up SPPB-Total Score, Mean",[3]; All AMG 745 Subjects (N = 31),10.52
same,"Follow-up SPPB-Total Score, Median",[3]; All AMG 745 Subjects (N = 31),11.00
same,"SPPB or 1-RM knee extension, changes from baseline","[3]; four doses, no statistical analyses",effects were not apparent
same,ALL ADVERSE EVENTS,[4]; [10],5 (83) n (%)
same,ALL TREATMENT-RELATED ADVERSE EVENTS,[4]; [10],1 (17) n (%)
same,INVESTIGATIONAL PRODUCT DISCONTINUATIONS DUE TO ADVERSE EVENTS,[4]; [10],0 (0) n (%)
same,STUDY DISCONTINUATIONS DUE TO ADVERSE EVENTS,[4]; [10],0 (0) n (%)
same,Serious adverse events (all adverse events),[4]; [10],0 (0) n (%)
same,Serious adverse events (treatment-related),[4]; [10],0 (0) n (%)
same,DEATHS ON STUDY,[4]; [10],0 (0) n (%)
same,ALL ADVERSE EVENTS,[4]; [11],5 (83) n (%)
same,ALL TREATMENT-RELATED ADVERSE EVENTS,[4]; [11],3 (50) n (%)
same,INVESTIGATIONAL PRODUCT DISCONTINUATIONS DUE TO ADVERSE EVENTS,[4]; [11],0 (0) n (%)
same,STUDY DISCONTINUATIONS DUE TO ADVERSE EVENTS,[4]; [11],0 (0) n (%)
same,Serious adverse events (all adverse events),[4]; [11],0 (0) n (%)
same,Serious adverse events (treatment-related),[4]; [11],0 (0) n (%)
same,DEATHS ON STUDY,[4]; [11],0 (0) n (%)
same,ALL ADVERSE EVENTS,[4]; [12],15 (79) n (%)
same,ALL TREATMENT-RELATED ADVERSE EVENTS,[4]; [12],3 (16) n (%)
same,INVESTIGATIONAL PRODUCT DISCONTINUATIONS DUE TO ADVERSE EVENTS,[4]; [12],1 (5) n (%)
same,STUDY DISCONTINUATIONS DUE TO ADVERSE EVENTS,[4]; [12],0 (0) n (%)
same,Serious adverse events (all adverse events),[4]; [12],1 (5) n (%)
same,Serious adverse events (treatment-related),[4]; [12],0 (0) n (%)
same,DEATHS ON STUDY,[4]; [12],0 (0) n (%)
same,relationship between subject incidence of adverse events and dose,[4]; 0.3 to 3 mg/kg,No relationship was apparent
same,highest alanine aminotransferase [ALT],"[4]; 1 subject, 0.3 mg/kg",1.7 times the upper limit of normal (ULN)
same,highest alkaline phosphatase [AP],"[4]; 1 subject, 0.3 mg/kg",1.5 times the upper limit of normal (ULN)
same,highest aspartate aminotransferase [AST],"[4]; 1 subject, 0.3 mg/kg",2.2 times the upper limit of normal (ULN)
same,"injection site bruising, subject incidence",[4]; 2/31,6%
same,subjects discontinued because of adverse events (erythema of the abdomen),"[4]; 3-mg/kg dose cohort, after the second dose",1 subject
same,"serious adverse events (syncope), number","[4]; 3-mg/kg dose cohort, considered unrelated to treatment",1
same,"contusion, subject incidence",[4]; 3/31,10%
same,"diarrhea, subject incidence",[4]; 4/31,13%
same,"fatigue, subject incidence",[4]; 4/31,13%
same,tolerability,"[4]; 4 weekly SC doses, as high as 3.0 mg/kg",generally well tolerated
same,subjects with treatment-related adverse events,"[4]; AMG 745 at any dose, 7 of 31 subjects",23%
same,subjects with adverse events,"[4]; AMG 745 at any dose, 25 of 31 subjects",81%
same,ALL ADVERSE EVENTS,[4]; All AMG 745 Subjects (N = 31),25 (81) n (%)
same,ALL TREATMENT-RELATED ADVERSE EVENTS,[4]; All AMG 745 Subjects (N = 31),7 (23) n (%)
same,INVESTIGATIONAL PRODUCT DISCONTINUATIONS DUE TO ADVERSE EVENTS,[4]; All AMG 745 Subjects (N = 31),1 (3) n (%)
same,STUDY DISCONTINUATIONS DUE TO ADVERSE EVENTS,[4]; All AMG 745 Subjects (N = 31),0 (0) n (%)
same,Serious adverse events (all adverse events),[4]; All AMG 745 Subjects (N = 31),1 (3) n (%)
same,Serious adverse events (treatment-related),[4]; All AMG 745 Subjects (N = 31),0 (0) n (%)
same,DEATHS ON STUDY,[4]; All AMG 745 Subjects (N = 31),0 (0) n (%)
same,"fasting plasma glucose, insulin, cholesterol, LDL, HDL, triglycerides vs placebo","[4]; human, in vivo",no apparent differences between treatment groups
